In patent publication US20260042755A1, “GPR6 INVERSE AGONISTS” (MapLight Therapeutics, Inc., priority 2022, published 2026):

Experiments:
GPR6 = molecular target: T1, GPR6 (Homo sapiens, UniProt P46095); assay: GPR6 antagonist functional cAMP assay (LANCE Ultra cAMP TR-FRET, CHO cells stably expressing GPR6); assay type: cell-based
T1 construct: expressed in transfected cells; host or cells: CHO cells
Method in brief: (§1)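 Suspended cells were plated at 10,000 per well in Krebs-Ringer bicarbonate buffer containing 0.1% BSA and 150 μM Ro 20-1724, then treated with compounds for 45 min at 37 °C. Intracellular cAMP was then quantified by TR-FRET immunoassay.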

GPR3 = molecular target: T2, GPR3 (Homo sapiens, UniProt P46089); assay: GPR3 antagonist functional cAMP assay (LANCE Ultra cAMP TR-FRET, CHO cells stably expressing GPR3); assay type: cell-based
T2 construct: expressed in transfected cells; host or cells: CHO cells
T2 sequence (P46089 whole entry, species assumed): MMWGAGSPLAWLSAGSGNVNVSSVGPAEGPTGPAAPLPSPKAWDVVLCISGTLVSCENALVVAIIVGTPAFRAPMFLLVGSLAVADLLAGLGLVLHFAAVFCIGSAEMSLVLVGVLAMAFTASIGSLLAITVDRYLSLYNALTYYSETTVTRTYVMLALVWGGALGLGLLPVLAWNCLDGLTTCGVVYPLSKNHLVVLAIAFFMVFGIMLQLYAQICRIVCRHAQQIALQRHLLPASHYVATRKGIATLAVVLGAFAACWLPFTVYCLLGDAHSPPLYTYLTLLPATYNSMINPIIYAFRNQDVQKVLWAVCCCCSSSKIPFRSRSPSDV
Method in brief: as §1

[1] = procedure as described in Example 24
[2] = CHO cells stably expressing GPR6, cAMP assay (Example 24)
[3] = CHO cells stably expressing GPR3, cAMP assay (Example 24)
[4] = CHO cells stably expressing GPR6, cAMP assay
[5] = CHO cells stably expressing GPR3, cAMP assay

T1 sequence (P46095 whole entry): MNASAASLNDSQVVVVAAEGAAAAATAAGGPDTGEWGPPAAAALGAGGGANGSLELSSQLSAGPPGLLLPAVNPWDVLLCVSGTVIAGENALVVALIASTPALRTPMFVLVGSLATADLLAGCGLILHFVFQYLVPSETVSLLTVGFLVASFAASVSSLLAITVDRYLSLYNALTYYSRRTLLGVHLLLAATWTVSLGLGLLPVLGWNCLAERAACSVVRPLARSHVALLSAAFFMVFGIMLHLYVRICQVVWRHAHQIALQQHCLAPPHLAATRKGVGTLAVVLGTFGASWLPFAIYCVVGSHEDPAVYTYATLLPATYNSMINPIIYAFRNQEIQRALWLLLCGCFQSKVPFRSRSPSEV

| SMILES | IC50 (GPR6; procedure of Example 24) [nM] | IC50 (GPR3; procedure of Example 24) [nM] | IC50 (GPR6; [2]) [nM] | IC50 (GPR3; [3]) [nM] | also measured |
| --- | --- | --- | --- | --- | --- |
| N#Cc1ccc2nc(N3CCN(Cc4cc(Cl)ccc4Cl)CC3)c(-c3ncc[nH]3)nc2c1 [Compound 27, 2-{4-[(2,5-dichlorophenyl)methyl]piperazin-1-yl}-3-(1H-imidazol-2-yl)quinoxaline-6-carbonitrile] |  |  |  |  | IC50 (GPR6; [1]): 1000 to 30000 nM; IC50 (GPR3; [1]): 100 to 1000 nM |
| CNC(=O)CN1CCc2nc(N3CCC(Oc4ccc(F)cc4F)CC3)c(-c3cnn(C4CCCCO4)c3)nc2C1 (stereo not shown) [Compound 144, 2-{2-[4-(2,4-difluorophenoxy)piperidin-1-yl]-3-[1-(oxan-2-yl)-1H-pyrazol-4-yl]-5H,6H,7H,8H-pyrido[3,4-b]pyrazin-6-yl}-N-methylacetamide] |  |  | 1000 to 30000 | 1000 to 30000 |  |
| COc1cccnc1-c1nc2c(nc1N1CCC(Oc3ccc(F)cc3F)CC1)CCN(C(C)=O)C2 [Compound 80, 1-{2-[4-(2,4-difluorophenoxy)piperidin-1-yl]-3-(3-methoxypyridin-2-yl)-5H,6H,7H,8H-pyrido[3,4-b]pyrazin-6-yl}ethan-1-one] |  |  | ≥ 30000 | 1000 to 30000 |  |
| CC(=O)N1CCc2nc(N3CCC(Oc4ccc(F)cc4F)CC3)c(C3CC3CO)nc2C1 (stereo not shown) [Compound 489, 1-(2-(4-(2,4-difluorophenoxy)piperidin-1-yl)-3-(2-(hydroxymethyl)cyclopropyl)-7,8-dihydropyrido[3,4-b]pyrazin-6(5H)-yl)ethan-1-one] |  |  |  |  | IC50 (GPR6; [4]): 100 to 1000 nM; IC50 (GPR3; [5]): 1000 to 30000 nM |
| CC(=O)N1CCc2nc(N3CCC(Oc4ccccc4C#N)CC3)c(-c3cnn(C)c3)nc2C1 [Compound 499, o-{1-[6-acetyl-3-(1-methyl-4-pyrazolyl)-5,6,7,8-tetrahydro-1,4,6-triaza-2-naphthyl]-4-piperidyloxy} benzonitrile] |  |  |  |  | IC50 (GPR6; [4]): 100 to 1000 nM; IC50 (GPR3; [5]): ≥ 30000 nM |
| CC(=O)N1CCc2nc(N3CCN(Cc4cccc(F)c4F)CC3)c(-c3cnn(C)c3)nc2C1 [Compound 320, 1-(2-{4-[(2,3-difluorophenyl)methyl]piperazin-1-yl}-3-(1-methyl-1H-pyrazol-4-yl)-5H,6H,7H,8H-pyrido[3,4-b]pyrazin-6-yl)ethan-1-one] | 1000 to 30000 | 1000 to 30000 |  |  |  |
| Fc1ccc(CN2CCN(c3nc4ccncc4nc3-c3cn[nH]c3)CC2)c(F)c1 [Compound 52, 1-[(2,4-difluorophenyl)methyl]-4-[3-(1H-pyrazol-4-yl)pyrido[3,4-b]pyrazin-2-yl]piperazine] |  |  |  |  | IC50 (GPR6; [1]): 100 to 1000 nM; IC50 (GPR3; [1]): 1000 to 30000 nM |
| O=c1cccc(-c2nc3ccncc3nc2N2CCC(Oc3ccc(F)cc3F)CC2)[nH]1 [Compound 99, 6-{3-[4-(2,4-difluorophenoxy)piperidin-1-yl]pyrido[3,4-b]pyrazin-2-yl}-1,2-dihydropyridin-2-one] |  |  | 1000 to 30000 | 1000 to 30000 |  |
| Cn1cc(-c2nc3cnc(CCO)cc3nc2N2CCC(Oc3ccc(F)cc3F)CC2)cn1 [Compound 468, 2-{2-[4-(2,4-difluorophenoxy)piperidin-1-yl]-3-(1-methyl-1H-pyrazol-4-yl)pyrido[3,4-b]pyrazin-7-yl}ethan-1-ol] |  |  | 100 to 1000 | 1000 to 30000 |  |
| CC(=O)N1CCc2nc(N3CCC(Oc4ccc(F)cc4F)CC3)c(-c3cnccn3)nc2C1 [Compound 19, 1-{2-[4-(2,4-difluorophenoxy)piperidin-1-yl]-3-(pyrazin-2-yl)-5H,6H,7H,8H-pyrido[3,4-b]pyrazin-6-yl}ethan-1-one] |  |  |  |  | IC50 (GPR6; [1]): 1000 to 30000 nM; IC50 (GPR3; [1]): 100 to 1000 nM |
| CCn1cc(-c2nc3c(nc2N2CCC(Oc4ccc(F)cc4F)CC2)CCN(S(=O)(=O)CC)C3)cn1 [Compound 267, 4-(2,4-difluorophenoxy)-1-[6-(ethanesulfonyl)-3-(1-ethyl-1H-pyrazol-4-yl)-5H,6H,7H,8H-pyrido[3,4-b]pyrazin-2-yl]piperidine] | 100 to 1000 | 1000 to 30000 |  |  |  |
| Cn1cc(-c2nc3cnccc3nc2N2CCC(C)(Oc3ccc(F)cc3F)CC2)cn1 [Compound 188, 4-(2,4-difluorophenoxy)-4-methyl-1-[3-(1-methyl-1H-pyrazol-4-yl)pyrido[3,4-b]pyrazin-2-yl]piperidine] |  |  | 100 to 1000 | 1000 to 30000 |  |
| N#CCN1CCc2nc(N3CCC(Oc4ccc(F)cc4F)CC3)c(-c3cnn(C4CCCCO4)c3)nc2C1 (stereo not shown) [Compound 118, 2-{2-[4-(2,4-difluorophenoxy)piperidin-1-yl]-3-[1-(oxan-2-yl)-1H-pyrazol-4-yl]-5H,6H,7H,8H-pyrido[3,4-b]pyrazin-6-yl}acetonitrile] |  |  | 1000 to 30000 | 1000 to 30000 |  |
| COC[C@@H]1CN(Cc2ccc(F)cc2F)CCN1c1nc2c(nc1-c1cnn(C)c1)CN(C(C)=O)CC2 (single isomer, unassigned) [Compound 244] |  |  | 1000 to 30000 | 1000 to 30000 |  |
| CC(=O)N1CCc2nc(N3CCC(Oc4ccc(F)cc4F)CC3)c(-c3cccc4nccn34)nc2C1 [Compound 129, 1-{2-[4-(2,4-difluorophenoxy)piperidin-1-yl]-3-{imidazo[1,2-a]pyridin-5-yl}-5H,6H,7H,8H-pyrido[3,4-b]pyrazin-6-yl}ethan-1-one] |  |  | 1000 to 30000 | 1000 to 30000 |  |
| CC(=O)N1CCc2nc(N3CCN(Cc4cscn4)CC3)c(-c3cnn(C)c3)nc2C1 [Compound 516, 1-[3-(1-methyl-4-pyrazolyl)-2-{4-[(1,3-thiazol-4-yl)methyl]-1-piperazinyl}-5,6,7,8-tetrahydro-1,4,6-triaza-6-naphthyl]-1-ethanone] |  |  |  |  | IC50 (GPR6; [4]): 1000 to 30000 nM; IC50 (GPR3; [5]): ≥ 30000 nM |
| CC(=O)N1CCc2nc(N3CCN(Cc4cc(F)ccc4F)CC3)c(-c3cnn(C)c3)nc2C1 [Compound 505, 1-(2-{4-[(2,5-difluorophenyl)methyl]-1-piperazinyl}-3-(1-methyl-4-pyrazolyl)-5,6,7,8-tetrahydro-1,4,6-triaza-6-naphthyl)-1-ethanone] |  |  |  |  | IC50 (GPR6; [4]): 100 to 1000 nM; IC50 (GPR3; [5]): 1000 to 30000 nM |
| CC(=O)N1CCc2nc(N3CCN(C(CO)(CO)c4ccccc4F)CC3)c(-c3cnn(C)c3)nc2C1 [Compound 552, 1-(2-{4-[1-(o-fluorophenyl)-2-hydroxy-1-(hydroxymethyl)ethyl]-1-piperazinyl}-3-(1-methyl-4-pyrazolyl)-5,6,7,8-tetrahydro-1,4,6-triaza-6-naphthyl)-1-ethanone] |  |  |  |  | IC50 (GPR6; [4]): 1000 to 30000 nM; IC50 (GPR3; [5]): ≥ 30000 nM |
| CC(=O)N1CCc2nc(N3CCN(Cc4cn(C)cn4)CC3)c(-c3cnn(C)c3)nc2C1 [Compound 528, 1-(2-{4-[(1-methyl-4-imidazolyl)methyl]-1-piperazinyl}-3-(1-methyl-4-pyrazolyl)-5,6,7,8-tetrahydro-1,4,6-triaza-6-naphthyl)-1-ethanone] |  |  |  |  | IC50 (GPR6; [4]): ≥ 30000 nM; IC50 (GPR3; [5]): ≥ 30000 nM |
| CC(=O)N1CCc2nc(N3CCN(Cc4ccc(F)cc4C#N)CC3)c(-c3cnn(C)c3)nc2C1 [Compound 355, 2-({4-[6-acetyl-3-(1-methyl-1H-pyrazol-4-yl)-5H,6H,7H,8H-pyrido[3,4-b]pyrazin-2-yl]piperazin-1-yl}methyl)-5-fluorobenzonitrile] | 1000 to 30000 | 1000 to 30000 |  |  |  |
| COc1ccc(OC2CCN(c3nc4c(nc3-c3cnn(C)c3)CN(C(C)=O)CC4)CC2)cc1F [Compound 502, 1-{2-[4-(3-fluoro-4-methoxyphenoxy)-1-piperidyl]-3-(1-methyl-4-pyrazolyl)-5,6,7,8-tetrahydro-1,4,6-triaza-6-naphthyl}-1-ethanone] |  |  |  |  | IC50 (GPR6; [4]): 100 to 1000 nM; IC50 (GPR3; [5]): 1000 to 30000 nM |
| COC(=O)N1CCc2nc(N3CCC(Oc4ccc(F)cc4F)CC3)c(-c3cnn(C4CCCCO4)c3)nc2C1 (stereo not shown) [Compound 125, methyl 2-[4-(2,4-difluorophenoxy)piperidin-1-yl]-3-[1-(oxan-2-yl)-1H-pyrazol-4-yl]-5H,6H,7H,8H-pyrido[3,4-b]pyrazine-6-carboxylate] |  |  | 100 to 1000 | 1000 to 30000 |  |

Continued, in another order:

| IC50 (GPR6; procedure of Example 24) [nM] | IC50 (GPR3; procedure of Example 24) [nM] | IC50 (GPR6; [2]) [nM] | IC50 (GPR3; [3]) [nM] | SMILES | also measured |
| --- | --- | --- | --- | --- | --- |
| 100 to 1000 | 1000 to 30000 |  |  | CC(C)(O)C(=O)c1cc2nc(N3CCC(Oc4ccc(F)cc4F)CC3)c(-c3cnn(C(F)F)c3)nc2cn1 [Compound 616, 1-{3-[1-(difluoromethyl)-4-pyrazolyl]-2-[4-(2,4-difluorophenoxy)-1-piperidyl]-1,4,6-triaza-7-naphthyl}-2-hydroxy-2-methyl-1-propanone] |  |
| 100 to 1000 | 1000 to 30000 |  |  | CCn1cc(-c2nc3cnc(CC(C)(C)O)cc3nc2N2CCC(Oc3ccc(F)cc3F)CC2)cn1 [Compound 706, 1-{2-[4-(2,4-difluorophenoxy)-1-piperidyl]-3-(1-ethyl-4-pyrazolyl)-1,4,6-triaza-7-naphthyl}-2-methyl-2-propanol] |  |
| 100 to 1000 | 1000 to 30000 |  |  | CC(C)(O)C(O)c1cc2nc(-c3cnn(CF)c3)c(N3CCN(Cc4cc(F)ccc4F)CC3)nc2cn1 (single isomer, unassigned) [Compound 723] |  |
| 1000 to 30000 | 1000 to 30000 |  |  | CC(=O)N1CCc2nc(N3CCc4c(cnn4-c4ccc(F)cc4F)C3)c(-c3cnn(C)c3)nc2C1 [Compound 789, 1-{2-[1-(2,4-difluorophenyl)-4,5,6,7-tetrahydro-1H-1,2,5-triazainden-5-yl]-3-(1-methyl-4-pyrazolyl)-5,6,7,8-tetrahydro-1,4,6-triaza-6-naphthyl}-1-ethanone] |  |
| 100 to 1000 | 1000 to 30000 |  |  | CC(C)(O)Cc1cc2nc(-c3cnn(CF)c3)c(N3CCC(Oc4ccc(F)cc4F)CC3)nc2cn1 [Compound 717, 1-{3-[4-(2,4-difluorophenoxy)-1-piperidyl]-2-[1-(fluoromethyl)-4-pyrazolyl]-1,4,6-triaza-7-naphthyl}-2-methyl-2-propanol] |  |
| < 100 | 100 to 1000 |  |  | Cn1cc(-c2nc3cc([C@H](O)C(C)(C)O)ncc3nc2N2CCC(=Cc3ccc(F)cc3F)CC2)cn1 (single isomer, unassigned) [Compound 764] |  |
| < 100 | 1000 to 30000 |  |  | CC(C)(O)C(O)c1cc2nc(-c3cnn(C(F)F)c3)c(N3CCN(Cc4ccccc4F)CC3)nc2cn1 (single isomer, unassigned) [Compound 668, 1-{2-[1-(difluoromethyl)-4-pyrazolyl]-3-{4-[(o-fluorophenyl)methyl]-1-piperazinyl}-1,4,6-triaza-7-naphthyl}-2-methyl-1,2-propanediol] |  |
